Test [1] has as its target T1, DNA topoisomerase 1 (Homo sapiens) (UniProt P11387).
T1 sequence (whole entry): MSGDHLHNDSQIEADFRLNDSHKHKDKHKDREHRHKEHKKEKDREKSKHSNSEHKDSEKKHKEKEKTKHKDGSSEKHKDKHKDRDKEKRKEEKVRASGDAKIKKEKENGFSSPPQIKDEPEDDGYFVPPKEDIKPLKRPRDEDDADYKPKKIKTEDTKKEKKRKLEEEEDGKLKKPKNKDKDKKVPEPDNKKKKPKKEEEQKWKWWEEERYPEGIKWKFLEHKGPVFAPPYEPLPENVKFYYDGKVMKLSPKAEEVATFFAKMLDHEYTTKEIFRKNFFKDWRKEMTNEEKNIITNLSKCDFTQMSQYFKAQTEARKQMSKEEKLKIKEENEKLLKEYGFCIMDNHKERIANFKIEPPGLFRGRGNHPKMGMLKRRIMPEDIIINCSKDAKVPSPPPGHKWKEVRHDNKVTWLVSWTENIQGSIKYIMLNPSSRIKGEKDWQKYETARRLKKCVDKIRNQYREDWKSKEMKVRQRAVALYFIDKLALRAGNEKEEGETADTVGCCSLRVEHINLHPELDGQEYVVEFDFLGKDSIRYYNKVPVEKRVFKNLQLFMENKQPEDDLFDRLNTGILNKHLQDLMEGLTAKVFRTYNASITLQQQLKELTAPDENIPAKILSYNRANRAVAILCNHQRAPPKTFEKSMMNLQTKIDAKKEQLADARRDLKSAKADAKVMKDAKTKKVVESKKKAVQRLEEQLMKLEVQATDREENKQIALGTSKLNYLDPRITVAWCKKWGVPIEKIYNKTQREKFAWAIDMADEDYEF
Nature of the test: Inhibition of human topoisomerase 1 by DNA relaxation assay.

For the next test, the system named is MDA-MB-435. Nature of the test: Growth inhibition of human MDA-MB-435 cells. It is filed as functional.
The next test deals with NCI-H460. Description: Antitumor activity against human NCI-H460 cells at 0.1 uM assessed as cell growth. It is filed as functional.
Another test relates to MCF7. Description: Antitumor activity against human MCF7 cells at 0.1 uM assessed as cell growth. The class given is functional.
The test system of the next test is SF-268. Nature of the test: Antitumor activity against human SF268 cells at 0.1 uM assessed as cell growth. The class given is functional.
A short description of test [2]: Growth inhibition of human NCI-H322 M cells. It is filed as functional. The note with it: NCI-H322M.
For the next test, the system named is UACC-257. Description: Growth inhibition of human UACC257 cells. The class given is functional.

The source made the active and inactive calls. The calls are words filed in the database; no cut-off is given here.

Regarding `CN(C)CCCNC(=O)c1cc(NC(=O)c2cc(NC(=O)CCNC(=O)c3c4ccccc4nc4ccccc34)cn2C)cn1C`, in test [1], the outcome was inactive.
Still for that read-out and setting: under `CN(C)CCCNC(=O)c1cc(NC(=O)c2cc(NC(=O)Cn3c4ccccc4c(=O)c4ccccc43)cn2C)cn1C` stands “inactive”.
`CN(C)CCCNC(=O)c1cc(NC(=O)c2cc(NC(=O)CCCN3c4ccccc4C=Cc4ccccc43)cn2C)cn1C`: in the test with MDA-MB-435, halving of growth (GI50) required 57.5 µM.
`CN(C)CCCNC(=O)c1cc(NC(=O)CCNC(=O)c2ccc3c(c2)C(=O)c2ccccc2C3=O)cn1C`: the Activity turned out to be 103% in the test on NCI-H460, 32% in the test on MCF7 and 113% with SF-268.
With `CN(C)CCCNC(=O)c1cc(NC(=O)c2cc(NC(=O)CCNS(=O)(=O)c3ccc4c(c3)C(=O)c3ccccc3C4=O)cn2C)cn1C`, the values for the Activity in the test on NCI-H460, with MCF7 and in the test with SF-268 were 84%, 27% and 98%, respectively. The same compound had a GI50 in test [2] of 35.7 µM.
Consider `CN(C)CCCNC(=O)c1cc(NC(=O)c2cc(NC(=O)CCCN3C(=O)c4cccc5cc([N+](=O)[O-])cc(c45)C3=O)cn2C)cn1C`, for which, in test [1], the result was inactive.
On the same count and under the same terms, as for `CN(C)CCCNC(=O)c1cc(NC(=O)c2cc(NC(=O)CCCN3C(=O)c4cccc5cccc(c45)C3=O)cn2C)cn1C`, the entry is “inactive”.
Regarding `CN(C)CCCNC(=O)c1cc(NC(=O)CCNS(=O)(=O)c2ccc3c(c2)C(=O)c2ccccc2C3=O)cn1C`, the figures for the Activity in the test on NCI-H460, with MCF7 and in the test on SF-268 were 1%, 1% and 2%, respectively. In the test on UACC-257, this compound showed a concentration for 50% growth inhibition (GI50) of 54.4 µM.
With `CN(C)CCCNC(=O)c1cc(NC(=O)c2cc(NC(=O)CCn3c4ccccc4c(=O)c4ccccc43)cn2C)cn1C`, the Activity in the test on NCI-H460 was found to be 52%.
Take `CN(C)CCCNC(=O)c1cc(NC(=O)c2cc(NC(=O)CCCn3c4ccccc4c(=O)c4ccccc43)cn2C)cn1C`: the Activity in the test on NCI-H460 amounted to 47%; in the test on MCF7 it was 48%. The outcome in test [1] was inactive.

The GI50 is the concentration that inhibits growth by half. Low values mean more potent growth inhibition, high ones less potent growth inhibition.

For the origin of these results see ChEMBL document CHEMBL1147997, “Design, synthesis and biological evaluation of new oligopyrrole carboxamides linked with tricyclic DNA-intercalators as potential DNA ligands or topoisomerase inhibitors” (2007).
